Data reported in patent US20040151677A1, “1,3,5-Triazine sunscreens solubilized in mixed phthalimide eutectics” (SOCIETE L'OREAL, S.A., priority 2002, published 2004).

Assays:
[1] = Test of in vitro efficacy: in vitro sun protection factor (Diffey method) of O/W emulsions; conditions: screening agent 5% in O/W support, mean of three SPF values
From the text: Test of In Vitro Efficacy:
The method for evaluating the protection factor used is the in vitro method described by B. L. Diffey et al. in J. Soc. Cosmet. Chem. 40-127-133 (1989), which consists in determining the monochromatic protection factors every 5 nm in a wavelength range from 290 to 400 nm, and in calculating therefrom the sun protection factor according to a given mathematical equation.
Two screening agents of triazine type were formulated in a support of O/W type, at 5% by weight, in the solvent according to the invention and in a comparative solvent (Finsolv TN), and three SPF values, the mean and the standard deviation of which are collated in the table below, were determined for each formulation: […]

[2] = Comparative study of the solubility of a triazine derivative in different solvents; type: physicochemical; conditions: heated to 83° C., crystals observed after 24 hours and cooling to room temperature
Method: Comparative Study of the Solubility of a Triazine Derivative in Different Solvents The solubility of a triazine derivative (i.e., 2,4,6-tris(diisobutyl 4′-aminobenzalmalonate)-s-triazine) in different solvents was determined by means of the following test:
20 g of solvent are added, at room temperature, to 5 g of screening agent, the mixture thus obtained is brought to 83° C. using a water bath, the presence or absence of crystals is observed after 24 hours and cooling to room temperature.
The results obtained are collated in the table below (the chemical names are given in the CTFA nomenclature, 5th edition, 1993).

[3] = solvent 15% C12-C15 alkyl benzoate "Finsolv TN" (comparative)
[4] = solvent 15% n-butylphthalimide/isopropylphthalimide Pelemol BIP (invention)

Compound | Mean SPF (Standard Deviation) [1, 3] | Mean SPF (Standard Deviation) [1, 4] | SOLUBILITY OF THE TRIAZINE SCREENING AGENT ([2]; solvent: C8-C12 fatty acid triglycerides "Miglyol 812") | SOLUBILITY OF THE TRIAZINE SCREENING AGENT ([2]; solvent: C12-C15 alkyl benzoate "Finsolv TN") | SOLUBILITY OF THE TRIAZINE SCREENING AGENT ([2]; solvent: PPG-3 myristyl ether "Witconol APM") | SOLUBILITY OF THE TRIAZINE SCREENING AGENT ([2]; solvent: n-butylphthalimide/isopropylphthalimide eutectic mixture Pelemol BIP (invention))
CC(C)COC(=O)C(=Cc1ccc(Nc2nc(Nc3ccc(C=C(C(=O)OCC(C)C)C(=O)OCC(C)C)cc3)nc(Nc3ccc(C=C(C(=O)OCC(C)C)C(=O)OCC(C)C)cc3)n2)cc1)C(=O)OCC(C)C [2,4,6-tris(diisobutyl 4′-aminobenzalmalonate)-s-triazine] | 4.1 | 8.0 | <10% | <10% | <10% | 40%
CCCCC(CC)COc1ccc(-c2nc(-c3ccc(OC)cc3)nc(-c3ccc(OCC(CC)CCCC)cc3O)n2)c(O)c1 (centres unmarked) [Anisotriazine] | 8.5 | 11.4 |  |  |  | 
